Assay results from US11058654B2, “Compositions and methods for the treatment of hemoglobinopathies and thalassemias” (AXCELLA HEALTH INC., priority 2018, dated 2021).

Tests used:
[1] = Plasma pharmacokinetics after oral gavage in male Sprague-Dawley rats; format: in vivo; design: AUC(0-t): concentration or dose not given beside the values; conditions: rat, plasma, Mean, oral gavage of RCitNacQCarLHKVS, male Sprague-Dawley rats; for AUC(0-t): read-out: AUC0-5 h; for Cmax: read-out: Cmax; for Tmax: read-out: Tmax
Description: A pharmacokinetic (PK) analysis was performed on plasma concentrations of various combinations of amino acid compounds administered by oral gavage to male Sprague-Dawley rats. Four animals were dosed with RCitNacQCarLHKVS, a test article comprising ten amino acid components: arginine, citrulline, N-acetylcysteine, glutamine, carnitine, leucine, histidine, lysine, valine, and serine (Table 19). Animals were fasted for 2 hours prior to dose administration. Plasma samples were taken immediately pre-dose and 0.5, 1, 2, 3, 4, and 5 hours post-dose.
Bioanalysis of collected plasma samples for amino acid content was performed at Axcella Health using an LC-MS method (Section 2.1). Bioanalytical data were analyzed using noncompartmental analysis with Phoenix® WinNonLin® (v8.1).
An LC/MS method utilizing HILIC chromatography and high-resolution mass spectrometry was used to quantify amino acids in rat plasma. The samples were prepared by protein precipitation and spiked with stable-labeled amino acid internal standard for each analyte. […] QCs, spiked into rat plasma, were utilized to assess the accuracy of the method.
PK parameters of test article components were determined from individual rat plasma concentration-time data by employing a noncompartmental approach using Phoenix WinNonlin® (Version 8.1) software. Nominal times were used to calculate the toxicokinetic parameters. […] This program analyzed data using the standard methods described by Gibaldi and Perrier (see M. Gibaldi and D. Perrier, Pharmacokinetics, 2nd edition, New York: Marcel-Dekker, Inc.; 1982.).

[2] = tested on: RBCs of healthy whole blood; experiment: RBC deformability (LORRCA elongation index), ex vivo TBHP oxidation of healthy whole blood; format: cell-based, human; conditions: for EI over vehicle control, ½ EImax and EImax: healthy donor 2, single amino acid treatments, in words
From the text: Whole blood from healthy African American and/or Hispanic donors was obtained from Research Blood Components, LLC based on the following donor selection criteria: Adult age (between 18 and 50 years), normal BMI (<30), and absence of other confounding clinical conditions. Whole blood from SCD donors were obtained from BioIVT based on the following donor selection criteria: Patients with genotypes HbSS, HbSC, HbS/β^0 and at least 1-2 months gap since last blood transfusion. Whole blood was shipped on ice on the same day as blood draw. Upon receipt, the blood sample was aliquoted and stored in the refrigerator until used for studies.
RBC deformability measurements were conducted with the Laser Optical Rotational Red Cell Analyzer (LORRCA) from RR Mechatronics in a temperature-controlled environment (37° C.). Briefly, an even layer of RBCs suspended in polyvinylpyrrolidone (PVP) is subjected to shear stress gradient (0.3 to 30 Pa) through two concentric cylinders and the resulting changes in RBC shape or deformability are measured by a laser beam diffraction pattern. The captured images of RBC shape in response to increasing shear stress are then analyzed by the LORRCA program to calculate Elongation Index (EI).
Healthy RBCs have higher deformability≥0.5 EI and SCD RBCs have lower deformability or EI values as studied by LORRCA ektacytometry in the field. […] The induced hemolysis model in this disclosure involves use of tert-butyl hydroperoxide (TBHP) to lower EI of RBCs.
The ex vivo hemolysis study disclosed here involves overnight treatment of whole blood with vehicle as a control and specific amino acids followed by rapid oxidation (5 min) with TBHP. Method for oxidation of whole blood with tert-butyl hydroperoxide has been used in prior literature (Diederich L, et al, Front Physiol. 2018 May 11; 9:332). RBC deformability or shape changes are then measured with LORRCA ektacytometry.
Whole blood aliquots stored in the fridge were brought up to room temperature while gently shaking on a rocker at low speed for an hour to ensure gradual and uniform suspension of red blood cells prior to deformability measurements. Vehicle control used in the study was 1× Dulbecco's […]) and amino acids disclosed herein were added (at either final […] or 2.5 mM concentration as indicated) to corresponding vehicle and amino acid treatment conditions. The samples were then incubated overnight at 37° C. Next day, 25 μL of whole blood was taken from each treatment condition and added to 5 mL Elon ISO viscous solution from RR Mechatronics. The sample was inverted 15-20 times to ensure proper mixing of the treated RBCs with the Elon ISO solution followed by loading the sample on LORRCA and capturing RBC deformability or shape measurements over the applied shear gradient. The remaining whole blood treatments were returned to incubator (37° C.) until deformability measurements were completed for all treatments. To the remaining whole blood treatment samples, TBHP solution (5.0-6.0 M in Decane, Sigma) was added at 2.5 mM final concentration from a 100 mM freshly prepared stock and incubated for further 5 min at 37° C. 25 μL of this TBHP-treated sample was immediately removed at the end of the 5 min incubation and added to the Elon ISO solution for RBC deformability measurement after oxidation. Included in the Tables 13-15 are EI measurements at ½ EImax shear stress 1.69 Pa and EImax shear stress 30 Pa from these studies and FIG. 1 captures EI measurements for all shear stress points for the indicated treatment conditions.

Row | SMILES | AUC(0-t) [1] | Cmax [1] | Tmax [1] | EI over vehicle control, ½ EImax and EImax [2] | effectiveness among all treatment groups (EI and fold change relative to vehicle) ([2]; healthy donor 2, in words)
1 | N=C(N)NCCC[C@H](N)C(=O)O [Arginine] | 2210 µM·h | 565 µM | 82.8 min | higher than the vehicle | 
2 | NC(=O)CC[C@H](N)C(=O)O [Glutamine] | 2370 µM·h | 605 µM | 30 min | higher than the vehicle | least effective
3 | CC(=O)N[C@@H](CS)C(=O)O [N-Acetyl Cysteine, N-acetylcysteine] |  |  |  | higher than the vehicle | 
